Data from patent publication US20120016009A1, “Optimized Methods For Delivery Of DSRNA Targeting The PCSK9 Gene” (priority 2008, published 2012).
In the oligonucleotide strings, read from the 5' end, every base follows the letter of its sugar. An asterisk marks phosphorothioate; unmarked linkages are phosphodiester. Other units and linkages are bracketed, terminal groups are in braces. A string of capitals states the bases alone. d = 2'-deoxy (DNA); m = 2'-O-methyl; r = 2'-OH (RNA)

Test system: PCSK9 mRNA
Assay: PCSK9 siRNA screening in HepG2 cells (lipofectamine 2000 transfection, PCSK9 mRNA by Quantigene, normalized to GAP-DH)
Format: cell-based, human
Conditions: not given
Method in brief: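 PCSK9 silencing was assessed in HepG2 cells by lipofectamine 2000 siRNA transfection in 96-well plates. Twenty-four hours later, lysates were analyzed with the Quantigene Explore Kit, with PCSK9 signal normalized to GAP-DH. Eight datapoints were collected per siRNA, and remaining transcript was expressed as a percentage of cells treated with an unrelated control siRNA duplex.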

| Substance | IC50 |
| --- | --- |
| AD-9671: PCSK9 siRNA (sense rArGmUmCrArArGrGrArGmCrAmUrGrGrArAmUmCdT*dT; antisense rGrArUrUrCmCrArUrGrCrUrCrCrUrUrGrArCrUdT*dT) | 2.5 nM |

Same assay, conditions: 3 nM siRNA

| Substance | Mean percent remaining mRNA transcript at siRNA concentration/in cell type 3 nM/HepG2 |
| --- | --- |
| AD-9646: PCSK9 siRNA (sense mCmUrGrGmUrGmCmUrArGmCmCmUmUrGmCrGmUmUdT*dT; antisense rArArCrGmCrArArGrGrCmUrArGmCrArCmCrArGdT*dT) | 108% |
| AD-9650: PCSK9 siRNA (sense rGmCmUrGrGmUrGmCmUrArGmCmCmUmUrGmCrGmUdT*dT; antisense rArCrGmCrArArGrGrCmUrArGmCrArCmCrArGrCdT*dT) | 90% |
| AD-9660: PCSK9 siRNA (sense rGrGrAmCrGrAmUrGmCmCmUrGmCmCmUmCmUrAmCdT*dT; antisense rGmUrArGrArGrGmCrArGrGmCrArUrCrGrUrCrCdT*dT) | 79% |
| AD-9671: PCSK9 siRNA (sense rArGmUmCrArArGrGrArGmCrAmUrGrGrArAmUmCdT*dT; antisense rGrArUrUrCmCrArUrGrCrUrCrCrUrUrGrArCrUdT*dT) | 33% |
| AD-9673: PCSK9 siRNA (sense mCmUmCrGmCrArGmUmCrArGrArGmCrGmCrAmCmUdT*dT; antisense rArGrUrGrCrGrCrUrCrUrGrArCrUrGrCrGrArGdT*dT) | 57% |
| AD-9674: PCSK9 siRNA (sense rGmCrArGmUmCrArGrArGmCrGmCrAmCmUrGmCmCdT*dT; antisense rGrGmCrArGrUrGrCrGrCrUrCrUrGrArCrUrGrCdT*dT) | 57% |

Same assay, conditions: 30 nM siRNA

| Substance | Mean percent remaining mRNA transcript at siRNA concentration/in cell type 30 nM/HepG2 |
| --- | --- |
| AD-9646: PCSK9 siRNA (sense mCmUrGrGmUrGmCmUrArGmCmCmUmUrGmCrGmUmUdT*dT; antisense rArArCrGmCrArArGrGrCmUrArGmCrArCmCrArGdT*dT) | 97% |
| AD-9647: PCSK9 siRNA (sense mCmUmCmCmUrArGrAmCrAmCmCrArGmCrAmUrAmCdT*dT; antisense rGmUrArUrGrCrUrGrGrUrGrUrCmUrArGrGrArGdT*dT) | 62% |
| AD-9648: PCSK9 siRNA (sense rArArGrGrArGmCrAmUrGrGrArAmUmCmCmCrGrGdT*dT; antisense rCrCrGrGrGrArUrUrCmCrArUrGrCrUrCrCrUrUdT*dT) | 78% |
| AD-9649: PCSK9 siRNA (sense mCrArGmCmCrArGrGrAmUmUmCmCrGmCrGmCrGmCdT*dT; antisense rGrCrGrCrGrCrGrGrArArUrCrCrUrGrGrCrUrGdT*dT) | 60% |
| AD-9650: PCSK9 siRNA (sense rGmCmUrGrGmUrGmCmUrArGmCmCmUmUrGmCrGmUdT*dT; antisense rArCrGmCrArArGrGrCmUrArGmCrArCmCrArGrCdT*dT) | 91% |
| AD-9651: PCSK9 siRNA (sense rGrGrArGmUmUmUrAmUmUmCrGrGrArArArArGmCdT*dT; antisense rGrCrUrUrUrUrCrCrGrArAmUrArArArCrUrCrCdT*dT) | 58% |
| AD-9652: PCSK9 siRNA (sense mUmCmCmCrArGmCmCrArGrGrAmUmUmCmCrGmCrGdT*dT; antisense rCrGrCrGrGrArArUrCrCrUrGrGrCrUrGrGrGrAdT*dT) | 97% |
| AD-9653: PCSK9 siRNA (sense rGmCmCrArAmCmCmCrGmCmUmCmCrAmCmUrAmCmCdT*dT; antisense rGrGmUrArGrUrGrGrArGrCrGrGrGrUrUrGrGrCdT*dT) | 86% |
| AD-9654: PCSK9 siRNA (sense mCrGrGmUrAmCmCrGrGrGmCrGrGrAmUrGrArAmUdT*dT; antisense rArUrUmCrArUrCrCrGrCrCrCrGrGmUrArCrCrGdT*dT) | 107% |
| AD-9655: PCSK9 siRNA (sense rGrGrGrAmUrAmCmCmUmCrAmCmCrArArGrAmUmCdT*dT; antisense rGrArUrCrUrUrGrGrUrGrArGrGmUrArUrCrCrCdT*dT) | 140% |
| AD-9656: PCSK9 siRNA (sense rAmCmCrGrGrGmCrGrGrAmUrGrArAmUrAmCmCrAdT*dT; antisense rUrGrGmUrArUrUmCrArUrCrCrGrCrCrCrGrGrUdT*dT) | 77% |
| AD-9659: PCSK9 siRNA (sense rGrAmCmCrAmCmCrGrGrGrArArAmUmCrGrArGrGdT*dT; antisense rCrCrUrCrGrArUrUrUrCrCrCrGrGrUrGrGrUrCdT*dT) | 88% |
| AD-9660: PCSK9 siRNA (sense rGrGrAmCrGrAmUrGmCmCmUrGmCmCmUmCmUrAmCdT*dT; antisense rGmUrArGrArGrGmCrArGrGmCrArUrCrGrUrCrCdT*dT) | 89% |
| AD-9661: PCSK9 siRNA (sense rGrArGmUrGrAmCmCrAmCmCrGrGrGrArArAmUmCdT*dT; antisense rGrArUrUrUrCrCrCrGrGrUrGrGrUmCrArCrUrCdT*dT) | 83% |
| AD-9662: PCSK9 siRNA (sense mUmUrAmUmUmCrGrGrArArArArGmCmCrArGmCmUdT*dT; antisense rArGrCrUrGrGrCrUrUrUrUrCrCrGrArAmUrArAdT*dT) | 81% |
| AD-9663: PCSK9 siRNA (sense rAmCrGrGmUrAmCmCrGrGrGmCrGrGrAmUrGrArAdT*dT; antisense rUrUmCrArUrCrCrGrCrCrCrGrGmUrArCrCrGrUdT*dT) | 102% |
| AD-9664: PCSK9 siRNA (sense mCmCrGrGrGmCrGrGrAmUrGrArAmUrAmCmCrArGdT*dT; antisense rCrUrGrGmUrArUrUmCrArUrCrCrGrCrCrCrGrGdT*dT) | 53% |
| AD-9665: PCSK9 siRNA (sense GGuGGAGGuGuAucuccuATsT; antisense uAGGAGAuAcACCUCcACCTsT; as printed in the source, key not given here) | 83% |
| AD-9666: PCSK9 siRNA (sense rArGrArGmUrGrAmCmCrAmCmCrGrGrGrArArAmUdT*dT; antisense rArUrUrUrCrCrCrGrGrUrGrGrUmCrArCrUrCrUdT*dT) | 81% |

| Substance | Mean percent remaining mRNA transcript at siRNA concentration/in cell type 30 nM/HepG2 |
| --- | --- |
| AD-9667: PCSK9 siRNA (sense rGrGmUrGrArGrGrGmUrGmUmCmUrAmCrGmCmCrAdT*dT; antisense rUrGrGrCrGmUrArGrAmCrArCrCrCrUmCrArCrCdT*dT) | 73% |
| AD-9668: PCSK9 siRNA (sense rAmUmCrGrArGrGrGmCrArGrGrGmUmCrAmUrGrGdT*dT; antisense rCmCrArUrGrArCrCrCrUrGrCrCrCrUrCrGrArUdT*dT) | 92% |
| AD-9669: PCSK9 siRNA (sense mCrGmCrGmUrGmCmUmCrArAmCmUrGmCmCrArArGdT*dT; antisense rCrUrUrGrGmCrArGrUrUrGrArGmCrArCrGrCrGdT*dT) | 97% |
| AD-9670: PCSK9 siRNA (sense mUrGrArGrGrAmCmCrArGmCrGrGrGmUrAmCmUrGdT*dT; antisense mCrArGmUrArCrCrCrGrCrUrGrGrUrCrCrUmCrAdT*dT) | 67% |
| AD-9671: PCSK9 siRNA (sense rArGmUmCrArArGrGrArGmCrAmUrGrGrArAmUmCdT*dT; antisense rGrArUrUrCmCrArUrGrCrUrCrCrUrUrGrArCrUdT*dT) | 15% |
| AD-9672: PCSK9 siRNA (sense mUrArGmCmCmUmUrGmCrGmUmUmCmCrGrArGrGrAdT*dT; antisense rUrCrCrUrCrGrGrArArCrGmCrArArGrGrCmUrAdT*dT) | 57% |
| AD-9673: PCSK9 siRNA (sense mCmUmCrGmCrArGmUmCrArGrArGmCrGmCrAmCmUdT*dT; antisense rArGrUrGrCrGrCrUrCrUrGrArCrUrGrCrGrArGdT*dT) | 56% |
| AD-9674: PCSK9 siRNA (sense rGmCrArGmUmCrArGrArGmCrGmCrAmCmUrGmCmCdT*dT; antisense rGrGmCrArGrUrGrCrGrCrUrCrUrGrArCrUrGrCdT*dT) | 36% |
| AD-9675: PCSK9 siRNA (sense rGrGrGmCmCmCrAmCrArAmCrGmCmUmUmUmUrGrGdT*dT; antisense rCmCrArArArArGrCrGrUrUrGrUrGrGrGrCrCrCdT*dT) | 78% |
| AD-9676: PCSK9 siRNA (sense rGrArGrGrGmUrGmUmCmUrAmCrGmCmCrAmUmUrGdT*dT; antisense mCrArArUrGrGrCrGmUrArGrAmCrArCrCrCrUrCdT*dT) | 100% |
| AD-9677: PCSK9 siRNA (sense UGGCGGGUGGGUACAGCCGTT; antisense CGGCUGUACCCACCCGCCATT; chemistry not given here) | 62% |
| AD-9678: PCSK9 siRNA (sense rArGrGrArGmCrAmUrGrGrArAmUmCmCmCrGrGmCdT*dT; antisense rGrCrCrGrGrGrArUrUrCmCrArUrGrCrUrCrCrUdT*dT) | 76% |
| AD-9681: PCSK9 siRNA (sense rGmUmCrArGrGrArGmCmCrGrGrGrAmCrGmUmCrAdT*dT; antisense rUrGrArCrGrUrCrCrCrGrGrCrUrCrCrUrGrArCdT*dT) | 55% |
| AD-9682: PCSK9 siRNA (sense uGGuGGAGGuGuAucuccuTsT; antisense AGGAGAuAcACCUCcACcATsT; as printed in the source, key not given here) | 38% |
| AD-9683: PCSK9 siRNA (sense mCmCrAmCmCrGrGrGrArArAmUmCrGrArGrGrGmCdT*dT; antisense rGrCrCrCrUrCrGrArUrUrUrCrCrCrGrGrUrGrGdT*dT) | 48% |
| AD-9684: PCSK9 siRNA (sense mUrAmUmCmUmUmUmUrGrGrGmUmCmUrGmUmCmCmUdT*dT; antisense rArGrGrAmCrArGrArCrCmCrArArArArGrAmUrAdT*dT) | 63% |
| AD-9685: PCSK9 siRNA (sense rGmUrGrAmCmCrAmCmCrGrGrGrArArAmUmCrGrAdT*dT; antisense rUrCrGrArUrUrUrCrCrCrGrGrUrGrGrUmCrArCdT*dT) | 77% |
| AD-9686: PCSK9 siRNA (sense rGrArGmUmUmUrAmUmUmCrGrGrArArArArGmCmCdT*dT; antisense rGrGrCrUrUrUrUrCrCrGrArAmUrArArArCrUrCdT*dT) | 111% |
| AD-9687: PCSK9 siRNA (sense rGrAmCrAmCmCrArGmCrAmUrAmCrArGrArGmUrGdT*dT; antisense mCrArCrUrCrUrGmUrArUrGrCrUrGrGrUrGrUrCdT*dT) | 84% |
